US20240059703A1 (AMGEN INC., priority 2021, published 2024)

Biological target: KRAS G12C (Homo sapiens (Human), UniProt P01116, C118A/G12C)
Assay: 2 h coupled exchange assay
Type: biochemical
Settings: Avg 2 h Coupled exchange IC50, 2 h compound pre-incubation
Method: The term “2 h coupled exchange assay” or “20 h coupled exchange assay” as used herein refers to the assay described in the Section entitled “BIOLOGICAL EVALUATION.”

KRAS G12C, sequence (P01116 other isoform, or with tags, fused parts or gaps G12C/C118A): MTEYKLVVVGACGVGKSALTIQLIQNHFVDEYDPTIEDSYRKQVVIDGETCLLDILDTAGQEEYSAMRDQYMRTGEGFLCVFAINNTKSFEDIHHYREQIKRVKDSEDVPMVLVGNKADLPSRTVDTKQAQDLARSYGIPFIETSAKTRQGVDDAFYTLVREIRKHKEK

Structure (SMILES)	IC50
C=CC(=O)N1CC2(CCN(c3nc4c(c(-c5cccc6cc(O)ccc56)c3F)COC(C)(C)C4)C2)C1 (single isomer, unassigned) [Example 14-67, (M)-1-(6-(3-fluoro-4-(6-hydroxy-1-naphthalenyl)-7,7-dimethyl-7,8-dihydro-5H-pyrano[4,3-b]pyridin-2-yl)-2,6-diazaspiro[3.4]octan-2-yl)-2-propen-1-one]	640 nM
C=CC(=O)N1CC2(CCN(c3nc4cc(-c5ccnn5C)ccc4c(-c4c(C)cccc4F)c3C)C2)C1 [Example 16-8, 1-(6-(4-(2-fluoro-6-methylphenyl)-3-methyl-7-(1-methyl-1H-pyrazol-5-yl)-2-quinolinyl)-2,6-diazaspiro[3.4]octan-2-yl)-2-propen-1-one]	702 nM
C=CC(=O)N1CC2(CCN(c3nc4c(c(-c5cc(O)ccc5C)c3F)C[C@H]3C[C@@H]4C3(C)C)C2)C1 (single isomer, unassigned) [Example 14-60]	3350 nM
Cc1ccc2[nH]ncc2c1-c1c(Cl)c(N2CCC3(CN(C(=O)/C=C/CN(C)C)C3)C2)cc2c1OCCC2 [Example 32-1, (2E)-1-(6-(7-chloro-8-(5-methyl-1H-indazol-4-yl)-3,4-dihydro-2H-chromen-6-yl)-2,6-diazaspiro[3.4]octan-2-yl)-4-(dimethylamino)-2-buten-1-one]	599 nM
C=CC(=O)N1CC2(CCN(c3nc4c(c(-c5ccc(F)c6sc(N)nc56)c3C#N)COC(C)(C)C4)C2)C1 (single isomer, unassigned) [Example 14-58, (M)-4-(2-amino-7-fluoro-1,3-benzothiazol-4-yl)-7,7-dimethyl-2-(2-(2-propenoyl)-2,6-diazaspiro[3.4]octan-6-yl)-7,8-dihydro-5H-pyrano[4,3-b]pyridine-3-carbonitrile]	357 nM
C=CC(=O)N1CC2(CCN(c3nc4c(c(-c5c(C)ccc6cnn(C)c56)c3F)C[C@H]3C[C@@H]4C3(C)C)C2)C1 (single isomer, unassigned) [Example 14-75]	726 nM

Same assay, conditions: Avg 2 h Coupled exchange IC50, 2 h compound pre-incubation, SOS-mediated nucleotide exchange

Structure (SMILES)	IC50
C=CC(=O)N1CC2(CCN(c3nc4c(c(-c5c(O)ccc6ccccc56)c3C#N)C[C@H]3C[C@@H]4C3)C2)C1 (single isomer, unassigned) [Example 13-37]	31700 nM
C=CC(=O)N1CC2(CCN(c3nc4c(c(-c5cccc6ccc(O)cc56)c3C#N)COC(C)(C)C4)C2)C1 [Example 12-32, 4-(7-hydroxy-1-naphthalenyl)-7,7-dimethyl-2-(2-(2-propenoyl)-2,6-diazaspiro[3.4]octan-6-yl)-7,8-dihydro-5H-pyrano[4,3-b]pyridine-3-carbonitrile]	515 nM
C=CC(=O)N1CC2(CCN(c3nc4ccccc4c(-c4c(Cl)ccc5[nH]ncc45)c3C)C2)C1 [Example 2-29, 1-(6-(4-(5-chloro-1H-indazol-4-yl)-3-methyl-2-quinolinyl)-2,6-diazaspiro[3.4]octan-2-yl)-2-propen-1-one]	903 nM
C=CC(=O)N1CC2(CCN(c3nc4c(c(-c5cc(O)c(F)c6ccccc56)c3C#N)COC(C)(C)C4)C2)C1 [Example 13-71, 4-(4-fluoro-3-hydroxy-1-naphthalenyl)-7,7-dimethyl-2-(2-(2-propenoyl)-2,6-diazaspiro[3.4]octan-6-yl)-7,8-dihydro-5H-pyrano[4,3-b]pyridine-3-carbonitrile]	366 nM
C=CC(=O)N1CC2(CCN(c3nc4c(c(-c5cccc6cc(N)ccc56)c3C#N)COC(C)(C)C4)C2)C1 [Example 12-4, 4-(6-amino-1-naphthalenyl)-7,7-dimethyl-2-(2-(2-propenoyl)-2,6-diazaspiro[3.4]octan-6-yl)-7,8-dihydro-5H-pyrano[4,3-b]pyridine-3-carbonitrile]	818 nM
C=CC(=O)N1CC2(CCN(c3nc4c(c(-c5cccc(F)c5O)c3C#N)C[C@H]3C[C@@H]4C3(C)C)C2)C1 [Example 2-70, (1R,9R)-6-(3-fluoro-2-hydroxyphenyl)-10,10-dimethyl-4-(2-(2-propenoyl)-2,6-diazaspiro[3.4]octan-6-yl)-3-azatricyclo[7.1.1.0^2,7]undeca-2,4,6-triene-5-carbonitrile]	1340 nM
C=CC(=O)N1CC2(CCN(c3nc4c(c(-c5ccccc5Cl)c3C#N)C[C@H]3C[C@@H]4C3(C)C)C2)C1 [Example 2-63, (1R,9R)-6-(2-chlorophenyl)-10,10-dimethyl-4-(2-(2-propenoyl)-2,6-diazaspiro[3.4]octan-6-yl)-3-azatricyclo[7.1.1.0^2,7]undeca-2,4,6-triene-5-carbonitrile]	793 nM
C=CC(=O)N1CC2(CCN(c3nc4c(c(-c5cc(O)ccc5C)c3C#N)[C@H]3CC[C@@H]4C3)C2)C1 (single isomer, unassigned) [Example 14-12]	422 nM
C=C(Br)C(=O)N1CC2(CCN(c3nc4c(F)cccc4c(-c4c(C)ccc5[nH]ncc45)c3C#N)C2)C1 [Example 1-51, 2-(2-(2-bromo-2-propenoyl)-2,6-diazaspiro[3.4]octan-6-yl)-8-fluoro-4-(5-methyl-1H-indazol-4-yl)-3-quinolinecarbonitrile]	791 nM
C=CC(=O)N1CC2(CCN(c3nc4c(c(-c5cc(O)cc(F)c5F)c3C)CCC(C)(C)C4)C2)C1 [Example 2-26, 1-(6-(4-(2,3-difluoro-5-hydroxyphenyl)-3,7,7-trimethyl-5,6,7,8-tetrahydro-2-quinolinyl)-2,6-diazaspiro[3.4]octan-2-yl)-2-propen-1-one]	234 nM
C=CC(=O)N1CC2(CCN(c3nc4ccccc4c(-c4c(C)ccc5[nH]ncc45)c3C)C2)C1 (single isomer, unassigned) [Example 2-55, (P)-1-(6-(3-methyl-4-(5-methyl-1H-indazol-4-yl)-2-quinolinyl)-2,6-diazaspiro[3.4]octan-2-yl)-2-propen-1-one]	419 nM
C=CC(=O)N1CC2(CCN(c3nc4c(c(-c5cccc6snnc56)c3C#N)COC(C)(C)C4)C2)C1 [Example 12-21, 4-(1,2,3-benzothiadiazol-4-yl)-7,7-dimethyl-2-(2-(2-propenoyl)-2,6-diazaspiro[3.4]octan-6-yl)-7,8-dihydro-5H-pyrano[4,3-b]pyridine-3-carbonitrile]	601 nM
C=CC(=O)N1CC2(CCN(c3nc4c(c(-c5c(C)ccc6nonc56)c3C#N)C[C@H]3C[C@@H]4C3(C)C)C2)C1 [Example 12-26, (1R,9R)-10,10-dimethyl-6-(5-methyl-2,1,3-benzoxadiazol-4-yl)-4-(2-(2-propenoyl)-2,6-diazaspiro[3.4]octan-6-yl)-3-azatricyclo[7.1.1.0^2,7] undeca-2,4,6-triene-5-carbonitrile]	687 nM
C=CC(=O)N1CC2(CCN(c3nc4cc(F)ccc4c(-c4c(C)ccc5[nH]ncc45)c3C)[C@H]2C)C1 (single isomer, unassigned) [Example 2-60]	4670 nM
C=CC(=O)N1CC2(CCN(c3nc4c(c(-c5c(O)cccc5Cl)c3C#N)C[C@H]3C[C@@H]4C3)C2)C1 (single isomer, unassigned) [Example 13-67]	506 nM
C=CC(=O)N1CC2(CCN(c3nc4c(c(-c5c(C)ccc6cnn(C)c56)c3C#N)CO[C@@H](C)C4)C2)C1 [Example 13-142, (7)-2-(2-acryloyl-2,6-diazaspiro[3.4]octan-6-yl)-4-(1,6-dimethyl-1H-indazol-7-yl)-7-methyl-7,8-dihydro-5H-pyrano[4,3-b]pyridine-3-carbonitrile]	620 nM
C=CC(=O)N1CC2(CCN(c3nc4c(c(-c5cc(Cl)cc6ccn(C)c56)c3C#N)COC(C)(C)C4)C2)C1 (single isomer, unassigned) [Example 12-9, (P)-4-(5-chloro-1-methyl-1H-indol-7-yl)-7,7-dimethyl-2-(2-(2-propenoyl)-2,6-diazaspiro[3.4]octan-6-yl)-7,8-dihydro-5H-pyrano[4,3-b]pyridine-3-carbonitrile]	443 nM
C=CC(=O)N1CC2(CCN(c3nc4c(c(-c5cc(O)c(F)c6ccccc56)c3C#N)CCC3CC43)C2)C1 [Example 13-72, (6aR,7aR)-4-(4-fluoro-3-hydroxy-1-naphthalenyl)-2-(2-(2-propenoyl)-2,6-diazaspiro[3.4]octan-6-yl)-6,6a,7,7a-tetrahydro-5H-cyclopropa[h]quinoline-3-carbonitrile|(6aS,7aS)-4-(4-fluoro-3-hydroxy-1-naphthalenyl)-2-(2-(2-propenoyl)-2,6-diazaspiro[3.4]octan-6-yl)-6,6a,7,7a-tetrahydro-5H-cyclopropa[h]quinoline-3-carbonitrile]	564 nM
C=CC(=O)N1CC2(CCN(c3nc4c(c(-c5cc(CO)ccc5Cl)c3C#N)C[C@H]3C[C@@H]4C3(C)C)C2)C1 [Example 2-65, (1R,9R)-6-(2-chloro-5-(hydroxymethyl)phenyl)-10,10-dimethyl-4-(2-(2-propenoyl)-2,6-diazaspiro[3.4]octan-6-yl)-3-azatricyclo[7.1.1.0^2,7]undeca-2,4,6-triene-5-carbonitrile]	735 nM
C=CC(=O)N1CC2(CCN(c3nc4c(c(-c5cc(O)cc6ccccc56)c3C#N)CC(C)(C)C4)C2)C1 (single isomer, unassigned) [Example 13-68, (M)-4-(3-hydroxy-1 naphthalenyl)-6,6-dimethyl-2-(2-(2-propenoyl)-2,6-diazaspiro[3.4]octan-6-yl)-6,7-dihydro-5H-cyclopenta[b]pyridine-3-carbonitrile]	27000 nM
C=CC(=O)N1CC2(CCN(c3nc4c(c(-c5c(C)ccc6cnn(C)c56)c3C#N)[C@H]3C[C@@H](C4)C3)C2)C1 [Example 13-131, (1S,9S)-3-(1,6-dimethyl-1H-indazol-7-yl)-5-(2-(2-propenoyl)-2,6-diazaspiro[3.4]octan-6-yl)-6-azatricyclo[7.1.1.0^2,7]undeca-2,4,6-triene-4-carbonitrile]	101 nM
C=CC(=O)N1CC2(CCN(c3nc4c(c(-c5c(C)ccc6cnn(C)c56)c3C#N)COC(C)(C)C4)C2(C)C)C1 [Example 13-48, 4-(1,6-dimethyl-1H-indazol-7-yl)-2-(5,5-dimethyl-2-(2-propenoyl)-2,6-diazaspiro[3.4]octan-6-yl)-7,7-dimethyl-7,8-dihydro-5H-pyrano[4,3-b]pyridine-3-carbonitrile]	664 nM
